# According to patent US20240279232A1, “USE OF SUBSTITUTED 5-(4-METHYL-6-PHENYL-4H-BENZO[F]IMIDAZO[1,5-A][1,4] DIAZEPIN-3-YL)-1,2,4-O[…] THE TREATMENT OF INFLAMMATORY CONDITIONS” (priority 2021, published 2024):
# How the values were obtained:
# Beta3 = Beta3 (Homo sapiens, UniProt P13945); assay: PDSP primary binding Beta3; conditions: PDSP primary screening
# Protocol: (§1) Because reduction of NO could not be reversed by GABAAR antagonists, the possible binding of MP-IV-010 to other cellular receptors was evaluated in collaboration with the NIMH Psychoactive Drug Screening Program.
# (§2) Psychoactive Drug Screening Program. Detailed protocols for the primary and secondary radioligand binding assays can be found in the National Institute of Mental Health's Psychoactive Drug Screening Program (NIMH PDSP) Assay Protocol Book. Briefly, primary and secondary radioligand binding assays are carried out in a final of volume of 125 μL per well in appropriate binding buffer. The radioactive ligand concentration is close to the Kd. Total binding and nonspecific binding are determined in the absence and presence of 10 μM of appropriate reference compound, respectively. In brief, plates are usually incubated at room temperature and in the dark for 90 min. Reactions are stopped by vacuum filtration onto 0.3% polyethyleneimine (PEI) soaked 96-well filter mats using a 96-well Filtermate harvester, followed by three washes with cold PBS buffer. Scintillation cocktail is then melted onto the microwave-dried filters on a hot plate and radioactivity counted in a Microbeta counter. The data (n=6) were analyzed by nonlinear regression.
# 5-HT1B = 5-HT1B (Homo sapiens, UniProt P28222); assay: PDSP primary binding 5-HT1B; conditions: PDSP primary screening
# Protocol: as §1, §2
# iNOS [1] = assay: iNOS activity in activated microglia after compound treatment; format: cell-based, mouse; conditions: 50 μM, treatment for 24 h
# Protocol: The cellular proteins were isolated from mouse microglia treated with vehicle and mouse microglia activated with IFNγ/LPS and treated for 24 hours with vehicle or 50 μM MP-IV-010. The specific iNOS activity was determined with an Abcam INOS Activity Assay kit (n=4).
# (§3) Next, the possible involvement of INOS in MP-IV-010 (and structurally similar compound GL-IV-03) mediated reduction of NO in activated microglia was investigated. INOS activity was measured in activated microglia after a 24-hour treatment with MP-IV-010. Second, proteins were harvested from microglia activated for 24 hours with LPS/INFγ, followed by a 2-hour treatment with MP-IV-010 before measuring iNOS activity. Finally, mRNA and protein levels were quantified for GL-IV-03 treated activated microglia to examine the transcriptional regulation of iNOS.
# (§4) iNOS activity assay. Mouse microglia were activated with 50 ng/mL LPS (Invivogen, NC9836) and 150 U/mL IFNγ (R&D Systems, 485MI100), and treated with compounds of interest in 6 well plates for 2 or 24 hours. […] Protein was collected, quantified, and analyzed with the Nitric Oxide Synthase Activity kit (Abcam, ab211083) with minor alterations to the established protocol. […] Absorbance at 540 nm was measured using a TECAN Infinite M1000 plate reader. Significance (n=3) was analyzed by ANOVA.
# Alpha2A = Alpha2A (Homo sapiens, UniProt P08913); assay: PDSP primary binding Alpha2A; conditions: PDSP primary screening
# Protocol: as §1, §2
# SERT = SERT (Homo sapiens, UniProt P31645); assay: PDSP primary binding SERT; conditions: PDSP primary screening
# Protocol: as §1, §2
# M5 = M5 (Homo sapiens, UniProt P08912); assay: PDSP primary binding M5; conditions: PDSP primary screening
# Protocol: as §1, §2
# 5-HT2B = 5-HT2B (Homo sapiens, UniProt P41595); assay: PDSP primary binding 5-HT2B; conditions: PDSP primary screening
# Protocol: as §1, §2
# 5-HT1E = 5-HT1E (Homo sapiens, UniProt P28566); assay: PDSP primary binding 5-HT1E; conditions: PDSP primary screening
# Protocol: as §1, §2
# D1 = D1 (Homo sapiens, UniProt P21728); assay: PDSP primary binding D1; conditions: PDSP primary screening
# Protocol: as §1, §2
# D4 = D4 (Homo sapiens, UniProt P21917); assay: PDSP primary binding D4; conditions: PDSP primary screening
# Protocol: as §1, §2
# iNOS [2] = biological target: T1, iNOS (Mus musculus, UniProt P29477); assay: iNOS activity of extracts of activated microglia incubated with compound; format: biochemical; conditions: 50 μM, extracts incubated 2 h
# T1 construct: endogenous in cells
# Protocol: Cellular proteins were isolated from mouse microglia and mouse microglia activated for 24 hours with IFNγ/LPS. Cellular proteins from activated microglia were treated for 2 hours with 50 μM MP-IV-010 and iNOS activity was determined for all protein extracts with an Abcam INOS Activity Assay kit (n=3).
# as §3, §4
# Beta1 = Beta1 (Homo sapiens, UniProt P08588); assay: PDSP primary binding Beta1; conditions: PDSP primary screening
# Protocol: as §1, §2
# M2 = M2 (Homo sapiens, UniProt P08172); assay: PDSP primary binding M2; conditions: PDSP primary screening
# Protocol: as §1, §2
# 5-HT2A = 5-HT2A (Homo sapiens, UniProt P28223); assay: PDSP primary binding 5-HT2A; conditions: PDSP primary screening
# Protocol: as §1, §2
# H3 = H3 (Homo sapiens, UniProt Q9Y5N1); assay: PDSP primary binding H3; conditions: PDSP primary screening
# Protocol: as §1, §2
# Alpha1B = Alpha1B (Homo sapiens, UniProt P35368); assay: PDSP primary binding Alpha1B; conditions: PDSP primary screening
# Protocol: as §1, §2
# Alpha1A = Alpha1A (Homo sapiens, UniProt P35348); assay: PDSP primary binding Alpha1A; conditions: PDSP primary screening
# Protocol: as §1, §2
# PBR = PBR (Rattus norvegicus, UniProt P16257); assay: PDSP primary binding PBR; conditions: PDSP primary screening
# Protocol: as §1, §2
structure (smiles),measurement,setting,value
"C#Cc1ccc2c(c1)C(c1ccccc1F)=N[C@H](C)c1c(-c3nc(C(C)C)no3)ncn1-2 [MP-IV-010, (R)-5-(8-ethynyl-6-(2-fluorophenyl)-4-methyl-4H-benzo[f]imidazo[1,5-a][1,4]diazepin-3-yl)-3-isopropyl-1,2,4-oxadiazole]",Percent Competition Beta3,Beta3,38%
same,Percent Competition 5-HT1B,5-HT1B,29%
same,iNOS activity in activated microglia,iNOS [1],completely inhibited
same,Percent Competition Alpha2A,Alpha2A,14%
same,Percent Competition SERT,SERT,22%
same,Percent Competition M5,M5,26%
same,Percent Competition 5-HT2B,5-HT2B,0%
same,Percent Competition 5-HT1E,5-HT1E,−7%
same,Percent Competition D1,D1,28%
same,Percent Competition D4,D4,5%
same,iNOS activity of cellular extracts (direct inhibition),iNOS [2],did not differ from the vehicle treated cell extract
same,Percent Competition Beta1,Beta1,6%
same,Percent Competition M2,M2,10%
same,Percent Competition 5-HT2A,5-HT2A,−1%
same,Percent Competition H3,H3,−18%
same,Percent Competition Alpha1B,Alpha1B,15%
same,Percent Competition Alpha1A,Alpha1A,2%
same,Percent Competition PBR,PBR,28%
